In PubChem BioAssay (NCI) one finds GI50 and TGI data, which are given here for 8 compounds.

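Briefly, cells in 96-well plates were exposed to five compound concentrations for 48 h, and endpoints were estimated by linear interpolation. Abbreviation: GI50, concentration required for 50% inhibition of growth. TGI denotes the concentration required for complete inhibition of growth.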

Test systems include HCT-116 colon; OVCAR-5 ovarian; A498 renal; RXF 393 renal; SF-268 CNS; EKVX NSCLC; SNB-19 CNS; SNB-75 CNS; UACC-62 melanoma; NCI/ADR-RES ovarian.
What all share (experiment): NCI-60 cell line screen, 48 h

As to `N#Cc1cc(-c2cc3ccccc3o2)oc1N`, the GI50 with HCT-116 colon is 3.65 µM; in the assay with OVCAR-5 ovarian it was 4.34 µM; in the assay with A498 renal, 1.76 µM; in the assay on RXF 393 renal it was 3.96 µM; in the assay on SF-268 CNS, 4.73 µM; in the assay with EKVX NSCLC it was 2.83 µM. In addition, the GI50 was 4.07 µM in the assay with SNB-19 CNS, 3.61 µM in the assay with SNB-75 CNS, 3.79 µM with UACC-62 melanoma and 3.71 µM with NCI/ADR-RES ovarian. The TGI was determined as 12.2 µM in the assay on HCT-116 colon; 30.6 µM in the assay with OVCAR-5 ovarian; 4.68 µM in the assay on A498 renal; 13.5 µM in the assay on RXF 393 renal; 20.1 µM in the assay on SF-268 CNS; 14.1 µM in the assay on EKVX NSCLC. For the same compound, the TGI with SNB-19 CNS is 31.7 µM; in the assay with SNB-75 CNS, 15.5 µM; in the assay with UACC-62 melanoma, 17.2 µM; in the assay with NCI/ADR-RES ovarian, more than 100 µM.
As for `CCNCCNc1cc(-c2ccc(C(F)(F)F)cc2)c(C#N)c2nc3ccccc3n12`, the GI50 in the assay with HCT-116 colon is 0.388 µM; with OVCAR-5 ovarian, 1.94 µM; in the assay with A498 renal, 1.86 µM; in the assay with RXF 393 renal it was 1.69 µM; in the assay with SF-268 CNS, 1.48 µM; with EKVX NSCLC, 1.62 µM. For the same compound, the GI50 was 1.72 µM in the assay on SNB-19 CNS, 1.23 µM in the assay with SNB-75 CNS, 0.496 µM in the assay with UACC-62 melanoma and 1.52 µM in the assay on NCI/ADR-RES ovarian. Besides, the TGI was 1.32 µM with HCT-116 colon; 3.52 µM in the assay on OVCAR-5 ovarian; 3.33 µM in the assay on A498 renal; 3.16 µM in the assay on RXF 393 renal; 3.04 µM with SF-268 CNS; 3.07 µM in the assay on EKVX NSCLC. The TGI in the assay with SNB-19 CNS worked out at 3.32 µM; with SNB-75 CNS, 2.54 µM; in the assay with UACC-62 melanoma, 1.82 µM; in the assay with NCI/ADR-RES ovarian it was 2.98 µM.
In the case of `NC(=O)c1cc(Cl)ccc1NC(=O)/C=C/c1ccccc1`, the GI50 was 2.66 µM with HCT-116 colon; 5.09 µM in the assay with A498 renal; 2.19 µM in the assay on RXF 393 renal; 5.96 µM in the assay on SF-268 CNS; 2.83 µM in the assay with EKVX NSCLC; 4.47 µM in the assay with SNB-19 CNS. For the same compound, the values for the GI50 in the assay on SNB-75 CNS, in the assay with UACC-62 melanoma and in the assay on NCI/ADR-RES ovarian were 3.16 µM, 2.18 µM and 2.63 µM, respectively. In addition, the TGI was more than 100 µM with HCT-116 colon; more than 58.7 µM in the assay with OVCAR-5 ovarian; more than 53.7 µM in the assay on A498 renal; 6.53 µM with RXF 393 renal; more than 60.4 µM in the assay with SF-268 CNS; more than 100 µM in the assay on EKVX NSCLC. Besides, the TGI is more than 55.6 µM in the assay with SNB-19 CNS, more than 23.7 µM with SNB-75 CNS, more than 100 µM in the assay on UACC-62 melanoma and more than 26.9 µM in the assay on NCI/ADR-RES ovarian.
With `COc1ccc(C[N+](C)(C)N)cc1OC`, the GI50 in the assay with HCT-116 colon, with OVCAR-5 ovarian, in the assay with SF-268 CNS, with SNB-19 CNS, in the assay with SNB-75 CNS and in the assay with NCI/ADR-RES ovarian was more than 100 µM in each case. Further, the TGI in the assay on HCT-116 colon, with OVCAR-5 ovarian, with A498 renal, with RXF 393 renal, in the assay on SF-268 CNS and in the assay with EKVX NSCLC was more than 100 µM throughout. Besides, the TGI with SNB-19 CNS, in the assay with SNB-75 CNS, in the assay with UACC-62 melanoma and in the assay on NCI/ADR-RES ovarian was more than 100 µM in each case.
As to `CN(C)CCNc1ccc(CO)c2oc3ccc(O)cc3c(=O)c12`, the TGI in the assay on HCT-116 colon worked out at 52.2 µM; with OVCAR-5 ovarian it was 38 µM; with A498 renal, 28.3 µM; with RXF 393 renal it was 28.4 µM; in the assay on SF-268 CNS it was 42.2 µM; in the assay on EKVX NSCLC, 47.5 µM. Also, the TGI came out at 55.9 µM with SNB-19 CNS, 47.1 µM in the assay on SNB-75 CNS, 25 µM in the assay with UACC-62 melanoma and 74.3 µM in the assay with NCI/ADR-RES ovarian.
With `C/C(=N\Nc1ccc(Cl)cn1)c1ccc2ccccc2n1`, the GI50 in the assay with HCT-116 colon was 1.59 µM; in the assay on OVCAR-5 ovarian, 5.44 µM; with A498 renal, 33.4 µM; in the assay with RXF 393 renal, 2.95 µM; in the assay on SF-268 CNS it was 2.75 µM; in the assay with EKVX NSCLC it was 2.6 µM. The GI50 is 3.3 µM in the assay on SNB-19 CNS, 3.3 µM in the assay with SNB-75 CNS, 3.25 µM in the assay on UACC-62 melanoma and 2.16 µM in the assay on NCI/ADR-RES ovarian. Also, the TGI in the assay on HCT-116 colon, in the assay on OVCAR-5 ovarian, in the assay with A498 renal, in the assay on RXF 393 renal, in the assay with SF-268 CNS and with EKVX NSCLC was more than 100 µM in each case. The TGI with SNB-19 CNS, in the assay with SNB-75 CNS, with UACC-62 melanoma and in the assay on NCI/ADR-RES ovarian was more than 100 µM throughout.
On to `Cc1cc(C)c(NC(=O)c2sc3nc4c(cc3c2N)C(=O)CCC4)c(C)c1`, for which the GI50 is 3.85 µM with HCT-116 colon; 7.98 µM in the assay on OVCAR-5 ovarian; 3.4 µM with A498 renal; 1.32 µM in the assay on RXF 393 renal; 6.69 µM in the assay on SF-268 CNS; 4.28 µM in the assay on EKVX NSCLC. For the same compound, the GI50 in the assay with SNB-19 CNS was 6.12 µM; in the assay with SNB-75 CNS it was 2.28 µM; in the assay on UACC-62 melanoma, 1.31 µM; in the assay on NCI/ADR-RES ovarian, 2.08 µM. Moreover, the TGI in the assay on HCT-116 colon was more than 100 µM; in the assay on OVCAR-5 ovarian, more than 100 µM; with A498 renal it was more than 51.5 µM; in the assay with RXF 393 renal, 4.43 µM; in the assay on SF-268 CNS it was more than 100 µM; in the assay with EKVX NSCLC, more than 100 µM. Besides, the TGI in the assay on SNB-19 CNS is more than 100 µM; in the assay on SNB-75 CNS, more than 100 µM; in the assay with UACC-62 melanoma, more than 100 µM; in the assay with NCI/ADR-RES ovarian, 6.45 µM.
As to `c1ccc(Sc2ccc(Cc3nc4cc5ccccc5cc4[nH]3)cc2)cc1`, the GI50 in the assay on HCT-116 colon is 2.98 µM; in the assay with OVCAR-5 ovarian it was 17.9 µM; in the assay with A498 renal, 21.5 µM; with RXF 393 renal it was 21.2 µM; with SF-268 CNS, 8.48 µM; with EKVX NSCLC, 12.5 µM. The GI50 in the assay on SNB-19 CNS was 8.89 µM; with SNB-75 CNS it was more than 66.5 µM; in the assay with UACC-62 melanoma, 4.17 µM; in the assay on NCI/ADR-RES ovarian, 15.5 µM. For the same compound, the TGI in the assay on HCT-116 colon was 20.7 µM; in the assay with OVCAR-5 ovarian it was 98.8 µM; with A498 renal it was 57.8 µM; with RXF 393 renal, more than 100 µM; with SF-268 CNS, more than 100 µM; in the assay with EKVX NSCLC, more than 100 µM. Also, the TGI with SNB-19 CNS was more than 100 µM; with SNB-75 CNS it was more than 100 µM; in the assay on UACC-62 melanoma, 27.2 µM; in the assay with NCI/ADR-RES ovarian it was more than 62.7 µM.
